Assay results taken from paper PMC5065773 (Antiviral research, 2016).
Like-named read-outs stand apart in the source and are kept apart here.

What was measured:
[1] = target: DENV 3 Pro (Dengue virus type 3, UniProt P27915); experiment: In vitro protease assay with fluorogenic substrate Bz-Nle-Lys-Arg-Arg-AMC; type: biochemical, dengue virus serotype 3 (DENV3); conditions: for Hill-slope DENV 3 Pro: Hill slope of IC50 curve
[2] = target: T1, DENV2 protease (Dengue virus type 2, UniProt P14340); experiment: Tryptophan; type: binding, dengue virus serotype 2 (DENV2); conditions: for Competition with BPTI in fluorescence quenching: 50 μM compound and 10 μM BPTI; for Quenching of tryptophan fluorescence of DENV2 protease: 0.09-50 μM inhibitor, 2 μM protease
T1 sequence (P14340 1476-1653): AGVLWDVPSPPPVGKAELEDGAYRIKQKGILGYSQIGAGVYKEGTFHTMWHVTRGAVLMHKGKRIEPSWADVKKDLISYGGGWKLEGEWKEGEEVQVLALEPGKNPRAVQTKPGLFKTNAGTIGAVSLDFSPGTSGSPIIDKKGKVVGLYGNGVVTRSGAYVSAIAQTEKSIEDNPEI

[3] = target: T1, DENV2 protease; experiment: Determination of Ki and kinetics of inhibition; type: biochemical, dengue virus serotype 2 (DENV2); conditions: for Mode of inhibition (Lineweaver-Burk plots): DENV2 protease
[4] = target: DENV 4 Pro (Dengue virus type 4, UniProt P09866); experiment: In vitro protease assay with fluorogenic substrate Bz-Nle-Lys-Arg-Arg-AMC; type: biochemical, dengue virus serotype 4 (DENV4); conditions: for Hill-slope DENV 4 Pro: Hill slope of IC50 curve
Sequence of DENV 4 Pro (P09866 1475-1652): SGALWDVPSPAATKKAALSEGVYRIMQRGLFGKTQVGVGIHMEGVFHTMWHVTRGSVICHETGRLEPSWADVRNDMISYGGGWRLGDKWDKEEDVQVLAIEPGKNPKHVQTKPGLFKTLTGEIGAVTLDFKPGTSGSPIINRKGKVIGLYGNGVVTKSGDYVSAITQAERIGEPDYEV

[5] = target: T1, DENV2 protease; experiment: as above; type: biochemical, dengue virus serotype 2 (DENV2); conditions: for Hill-Slope DENV 2 Pro: Hill slope of IC50 curve
[6] = target: WNV protease (West Nile virus, UniProt Q9Q6P4); experiment: as above; type: biochemical; conditions: for Hill-slope WNV Pro: Hill slope of IC50 curve; for inhibition at 25 µM: read-out: Inhibition of WNVpro (%) At 25 μM
Sequence of WNV protease (Q9Q6P4 1428-1467): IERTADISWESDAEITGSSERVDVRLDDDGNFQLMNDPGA
Sequence of WNV protease (Q9Q6P4 1506-1683): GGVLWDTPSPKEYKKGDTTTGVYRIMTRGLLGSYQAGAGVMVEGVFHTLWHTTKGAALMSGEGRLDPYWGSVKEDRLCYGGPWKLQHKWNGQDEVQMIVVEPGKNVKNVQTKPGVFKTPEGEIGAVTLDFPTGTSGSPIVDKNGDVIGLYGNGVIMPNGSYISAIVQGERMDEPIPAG

[7] = system: DENV2; experiment: Viral RNA copy number by qRT-PCR in DENV2-infected BHK-21 cells; type: cell-based; conditions: 24 h
[8] = target: DENV 1 Pro (Dengue virus type 1, UniProt P17763); experiment: In vitro protease assay with fluorogenic substrate Bz-Nle-Lys-Arg-Arg-AMC; type: biochemical, dengue virus serotype 1 (DENV1); conditions: for Hill-slope DENV 1 Pro: Hill slope of IC50 curve
Sequence of DENV 1 Pro (P17763 1394-1445, looked up, natural form): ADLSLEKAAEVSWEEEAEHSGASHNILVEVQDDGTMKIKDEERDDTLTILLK
Sequence of DENV 1 Pro (P17763 1476-1660): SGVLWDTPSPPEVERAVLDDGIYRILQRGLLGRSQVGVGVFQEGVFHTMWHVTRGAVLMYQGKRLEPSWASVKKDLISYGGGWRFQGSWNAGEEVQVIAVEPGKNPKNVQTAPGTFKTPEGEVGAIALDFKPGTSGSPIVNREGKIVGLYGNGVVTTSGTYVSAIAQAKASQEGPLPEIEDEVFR

[9] = system: BHK-21 cells; experiment: Cytotoxicity to BHK-21 cells; type: cell-based; conditions: for CC50: ~24 h, CCK-8
[10] = system: DENV2 replicon; experiment: Renilla luciferase reporter replicon assay in stable BHK-21/DENV2 replicon cells; type: cell-based
[11] = target: WNVpro; conditions: read-out: Ki of BPTI against WNVpro; ref Aleshin et al., 2007; cited from earlier work
[12] = target: DENV2pro; conditions: read-out: Ki of BPTI against DENV2pro; ref Mueller et al., 2007; cited from earlier work

Sequence of DENV 3 Pro (P27915 1474-1651): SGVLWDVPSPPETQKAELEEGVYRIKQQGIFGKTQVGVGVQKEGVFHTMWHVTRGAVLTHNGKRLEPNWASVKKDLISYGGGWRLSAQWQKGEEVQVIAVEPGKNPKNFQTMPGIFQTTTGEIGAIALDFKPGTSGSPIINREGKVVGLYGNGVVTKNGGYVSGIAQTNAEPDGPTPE

| Molecule | Hill-slope DENV 3 Pro [1] | Competition with BPTI in fluorescence quenching [2] | Quenching of tryptophan fluorescence of DENV2 protease [2] | Mode of inhibition (Lineweaver-Burk plots) [3] | Hill-slope DENV 4 Pro [4] | Hill-Slope DENV 2 Pro [5] | Hill-slope WNV Pro [6] | Inhibition of DENV2 viral RNA (qRT-PCR) vs DMSO control ([7]; 2 μM compound) | Hill-slope DENV 1 Pro [8] | CC50 [9] [nM] | Ki [3] [nM] | IC50 [4] [nM] | IC50 [5] [nM] | IC50 [6] [nM] | inhibition at 25 µM [6] [%] | IC50 [8] [nM] | other results |
| --- | --- | --- | --- | --- | --- | --- | --- | --- | --- | --- | --- | --- | --- | --- | --- | --- | --- |
| Tannic acid [Compound G] | 1.53±0.06 | partially restore the fluorescence | quenched tryptophan fluorescence in a dose dependent manner | competitive inhibition | 0.79±0.03 | 1.60±0.07 | 0.88±0.05 | good inhibition | 1.79±0.09 | 68100 |  |  |  |  |  |  | Ki ([3]; competitive inhibition model, 20 nM DENV2 protease): 340 ± 50 nM; Inhibition of DENV2pro (%) At 10 μM ([5]; 10 μM compound): 99%; Inhibition of DENV2pro (%) At 25 μM ([5]; 25 μM compound): 101%; Inhibition of WNVpro (%) At 10 μM ([6]; 10 μM compound): 98%; Inhibition of WNVpro (%) At 25 μM ([6]; 25 μM compound): 96%; IC50 ([6]; read-out: IC50 WNV Pro, mean of duplicate experiments ± SEM): 120 ± 10 nM |
| Cc1ccc(C(=O)c2cc(O)c(O)c([N+](=O)[O-])c2)cc1 [Compound F, Tolcapone] | 1.60±0.08 | did not compete with BPTI | quenched tryptophan fluorescence in a dose dependent manner | competitive inhibition | 1.45±0.05 | 1.51±0.07 | 1.58±0.05 | good inhibition | 1.26±0.10 | 29200 | 220 ± 30 | 640 ± 30 | 980 ± 60 | 700 ± 40 | 95 | 1150 ± 100 | EC50 ([10]; Dengue virus, DENV2, BHK-21, 24 h, read-out: EC50 (μM) DENV2 Replicon): 2.29 ± 0.3 µM; Inhibition of DENV2 replicon replication ([10]; screened at 5, 10 and 25 μM vs 1% DMSO control): inhibit DENV2 replication |
| Cc1ccc(C(=O)Nc2ccc(S(=O)(=O)O)c3cc(S(=O)(=O)O)cc(S(=O)(=O)O)c23)cc1NC(=O)c1cccc(NC(=O)Nc2cccc(C(=O)Nc3cc(C(=O)Nc4ccc(S(=O)(=O)O)c5cc(S(=O)(=O)O)cc(S(=O)(=O)O)c45)ccc3C)c2)c1 [Compound H, Suramin] | 1.05±0.04 |  | failed to quench the tryptophan fluorescence |  | 1.25±0.12 | 0.97±0.04 | 1.29±0.03 |  | 0.92±0.05 |  | 870 ± 140 | 3730 ± 140 | 2660 ± 190 | 3240 ± 110 | 73 | 2760 ± 250 | IC50 [1]: 3250 ± 180 nM; inhibition at 10 µM ([5]; read-out: Inhibition of DENV2pro (%) At 10 μM): 72%; inhibition at 25 µM ([5]; read-out: Inhibition of DENV2pro (%) At 25 μM): 85%; inhibition at 10 µM ([6]; read-out: Inhibition of WNVpro (%) At 10 μM): 58%; Inhibition of DENV2 viral RNA (qRT-PCR) vs DMSO control ([7]; 10 μM compound): good inhibition; Cytotoxicity at the highest concentration tested ([9]; ~ 100 μM, 24 h): did not exhibit any cytotoxicity |
| Bovine pancreatic trypsin inhibitor [BPTI] |  |  |  |  |  |  |  |  |  |  |  |  |  |  |  |  | Ki [11]: 24 nM; Ki [12]: 26 nM |
